Experimental data: patent US20230083973A1, “SUBSTITUTED CYCLOPROPYL-2,2'-BIP[…], ANALOGUES THEREOF, AND METHODS USING SAME” (priority 2019, published 2023)

test system: HBsAg; assay: HBsAg assay: inhibition of HBsAg in HepG2.2.15 cells (chemiluminescence immunoassay of supernatant); type: cell-based, hepatitis B virus; conditions: Hepatitis B virus, HepG2.2.15, 144 h, read-out: sAg EC50, HepG2.2.15 cells; HBsAg in supernatant at day 6 after exposure to compound; 0.5% DMSO
In short: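 HepG2.2.15 cells treated with serially diluted compounds (0.5% DMSO), medium and compound refreshed after 2–3 days, supernatant harvested at day 6. Secreted HBsAg measured by chemiluminescence immunoassay; EC50 from dose-response curves, with parallel CellTiter-Glo viability at 5,000 cells/well.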

Row | Compound | EC50
1 | COCCOC1CN(c2cc([C@@H]3C[C@H]3c3cnc(-c4ncccn4)nc3)cc(F)c2F)C1 (relative stereo) [Example 212, trans-5-(2-(3,4-Difluoro-5-(3-(2-methoxyethoxy)azetidin-1-yl)phenyl)cyclopropyl)-2,2′-bipyrimidine] | 30 nM
2 | COCCCn1ncc2c(F)cc([C@@H]3C[C@H]3c3cnc(-c4ncccn4)nc3)cc21 (relative stereo) [Example 275, trans-6-(2-([2,2′-Bipyrimidin]-5-yl)cyclopropyl)-4-fluoro-1-(3-methoxypropyl)-1H-indazole] | 75 nM
3 | Fc1cc([C@@H]2C[C@H]2c2cnc(-c3ncccn3)nc2)cc(N2CC3(COC3)C2)c1F (relative stereo) [Example 209, trans-6-(5-(2-([2,2′-Bipyrimidin]-5-yl)cyclopropyl)-2,3-difluorophenyl)-2-oxa-6-azaspiro[3.3]heptane] | 120 nM
4 | CC(C)(C)S(=O)(=O)C1CN(c2cc([C@@H]3C[C@H]3c3cnc(-c4ncccn4)nc3)cc(F)c2F)C1 (relative stereo) [Example 211, trans-5-(2-(3-(3-(tert-Butylsulfonyl)azetidin-1-yl)-4,5-difluorophenyl)cyclopropyl)-2,2′-bipyrimidine] | 110 nM
5 | c1cnc(-c2ncc([C@@H]3C[C@H]3c3cccc4ncccc34)cn2)nc1 (relative stereo) [Example 171, trans-5-(2-([2,2′-Bipyrimidin]-5-yl)cyclopropyl)quinoline] | 380 nM
6 | COc1cc(C2CN(c3cc([C@@H]4C[C@H]4c4cnc(-c5ncccn5)nc4)cc(F)c3F)C2)cc(F)c1F (relative stereo) [Example 213, trans-5-(2-(3-(3-(3,4-Difluoro-5-methoxyphenyl)azetidin-1-yl)-4,5-difluorophenyl)cyclopropyl)-2,2′-bipyrimidine] | 73 nM
7 | COc1cc([C@@H]2C[C@H]2c2cnc(-c3ncccn3)nc2)cc(C(F)(F)F)c1F (relative stereo) [Example 165, trans-5-(2-(4-Fluoro-3-methoxy-5-(trifluoromethyl)phenyl)cyclopropyl)-2,2′-bipyrimidine] | 250 nM
8 | COc1cc([C@@H]2C[C@H]2c2cnc(-c3ncccn3)nc2C)ccc1F (relative stereo) [Example 16, trans-5-(2-(4-Fluoro-3-methoxyphenyl)cyclopropyl)-4-methyl-2,2′-bipyrimidine] | 750 nM
9 | Fc1cc([C@@H]2C[C@H]2c2cnc(-c3ncccn3)nc2)cc(OC2CC3(COC3)C2)c1F (relative stereo) [Example 243, trans-5-(2-(3-((2-Oxaspiro[3.3]heptan-6-yl)oxy)-4,5-difluorophenyl)cyclopropyl)-2,2′-bipyrimidine] | 110 nM
10 | O[C@@H]1CCN(c2cc(C3CC3c3cnc(-c4ncccn4)nc3)cc(Cl)c2F)C1 (single isomer, unassigned) [Example 126] | 120 nM
11 | COCCCn1cc2c(F)cc([C@@H]3C[C@H]3c3cnc(-c4ncccn4)nc3)cc2n1 (relative stereo) [Example 267, trans-6-(2-([2,2′-Bipyrimidin]-5-yl)cyclopropyl)-4-fluoro-2-(3-methoxypropyl)-2H-indazole] | 13 nM
12 | COc1cc([C@@H]2C[C@H]2c2cnc(-c3ncccn3)nc2)ccc1C(F)(F)F (relative stereo) [Example 153, trans-5-(2-(3-Methoxy-4-(trifluoromethyl)phenyl)cyclopropyl)-2,2′-bipyrimidine] | 190 nM
13 | OCc1cnn(-c2cc([C@@H]3C[C@H]3c3cnc(-c4ncccn4)nc3)cc(F)c2F)c1 (relative stereo) [Example 234, trans-(1-(5-(2-([2,2′-Bipyrimidin]-5-yl)cyclopropyl)-2,3-difluorophenyl)-1H-pyrazol-4-yl)methanol] | 140 nM

same assay, conditions: read-out: sAg EC50; HepG2.2.15 cells; HBsAg in supernatant at day 6 after exposure to compound; 0.5% DMSO

Row | Compound | EC50
14 | COc1cc(C2CC2c2cnc(-c3ncccn3)nc2C(C)C)ccc1F (single isomer, unassigned) [Example 74, trans-5-(2-(4-Fluoro-3-methoxyphenyl)cyclopropyl)-4-isopropyl-2,2′-bipyrimidine] | 10000 nM
15 | CC(=O)Nc1cc(C2CC2c2cnc(-c3ncccn3)nc2)ccc1Cl (single isomer, unassigned) [Example 206, trans-N-(5-(2-([2,2′-Bipyrimidin]-5-yl)cyclopropyl)-2-chlorophenyl)acetamide] | 820 nM
16 | COCCCOc1cc(F)c(Cl)cc1C1CC1c1cnc(-c2ncccn2)nc1 (single isomer, unassigned) [Example 155, trans-5-(2-(5-Chloro-4-fluoro-2-(3-methoxypropoxy)phenyl)cyclopropyl)-2,2′-bipyrimidine] | 3000 nM
17 | Clc1ccc(C2CC2c2cnc(-c3ncccn3)nc2)cc1N1CCCC1 (single isomer, unassigned) [Example 199, trans-5-(2-(4-Chloro-3-(pyrrolidin-1-yl)phenyl)cyclopropyl)-2,2′-bipyrimidine] | 140 nM
18 | CO[C@H]1CCN(c2cc(C3CC3c3cnc(-c4ncccn4)nc3)ccc2F)C1 (single isomer, unassigned) [Example 68] | 85 nM
19 | Fc1c(Cl)cc(C2CC2c2cnc(-c3ncccn3)nc2)cc1N1CCCC1 (single isomer, unassigned) [Example 109, trans-5-(2-(3-Chloro-4-fluoro-5-(pyrrolidin-1-yl)phenyl)cyclopropyl)-2,2′-bipyrimidine] | 25 nM
20 | Fc1cc(C2CC2c2cnc(-c3ncccn3)nc2)cc(N2CC3(CCOCC3)C2)c1F (single isomer, unassigned) [Example 137, trans-2-(5-(2-([2,2′-Bipyrimidin]-5-yl)cyclopropyl)-2,3-difluorophenyl)-7-oxa-2-azaspiro[3.5]nonane] | 74 nM
21 | COc1cc(C2CC2c2cnc(-c3ncccn3)nc2)cc(F)c1F (single isomer, unassigned) [Example 85, trans-5-(2-(3,4-Difluoro-5-methoxyphenyl)cyclopropyl)-2,2′-bipyrimidine] | 29 nM
22 | Fc1ccc(C2CC2c2cnc(-c3ncccn3)nc2)cc1Cl (single isomer, unassigned) [Example 29, trans-5-(2-(3-Chloro-4-fluorophenyl)cyclopropyl)-2,2′-bipyrimidine] | 780 nM
23 | Fc1ccc(C2CC2c2cnc(-c3ncccn3)nc2)cc1N1CCC(F)(F)C1 (single isomer, unassigned) [Example 43, trans-5-(2-(3-(3,3-Difluoropyrrolidin-1-yl)-4-fluorophenyl)cyclopropyl)-2,2′-bipyrimidine] | 250 nM
24 | COc1cc(F)cc(C2CC2c2cnc(-c3ncccn3)nc2)c1 (single isomer, unassigned) [Example 112, trans-5-(2-(3-Fluoro-5-methoxyphenyl)cyclopropyl)-2,2′-bipyrimidine] | 500 nM
25 | COC1CN(c2cc([C@@H]3C[C@H]3c3cnc(-c4ncccn4)nc3)cc(F)c2F)C1 (single isomer, unassigned) [Example 123, trans-5-(2-(3,4-Difluoro-5-(3-methoxyazetidin-1-yl)phenyl)cyclopropyl)-2,2′-bipyrimidine] | 12 nM
26 | Fc1ccc(C2CC2c2cnc(-c3ncccn3)nc2)cc1OCC(F)F (single isomer, unassigned) [Example 27, trans-5-(2-(3-(2,2-Difluoroethoxy)-4-fluorophenyl)cyclopropyl)-2,2′-bipyrimidine] | 630 nM
27 | COc1cc(C2CC2c2cnc(-c3ncccn3)nc2)cc(F)c1F (single isomer, unassigned) [Example 84, trans-5-(2-(3,4-Difluoro-5-methoxyphenyl)cyclopropyl)-2,2′-bipyrimidine] | 240 nM
28 | Fc1cc(C2CC2c2cnc(-c3ncccn3)nc2)cc(OCC2CC2)c1F (single isomer, unassigned) [Example 129, trans-5-(2-(3-(Cyclopropylmethoxy)-4,5-difluorophenyl)cyclopropyl)-2,2′-bipyrimidine] | 18 nM
29 | Cc1cn(-c2cc(C3CC3c3cnc(-c4ncccn4)nc3)cc(F)c2F)cn1 (single isomer, unassigned) [Example 262, trans-5-(2-(3,4-Difluoro-5-(4-methyl-1H-imidazol-1-yl)phenyl)cyclopropyl)-2,2′-bipyrimidine] | 47 nM
30 | COc1cc(C2CC2c2cnc(-c3ncccn3)nc2)cc(N2CCCC2)c1F (single isomer, unassigned) [Example 101, trans-5-(2-(4-Fluoro-3-methoxy-5-(pyrrolidin-1-yl)phenyl)cyclopropyl)-2,2′-bipyrimidine] | 800 nM
31 | COc1cc(C2CC2c2cnc(-c3ncccn3)nc2-c2ccccc2)ccc1F (single isomer, unassigned) [Example 143, trans-5-(2-(4-Fluoro-3-methoxyphenyl)cyclopropyl)-4-phenyl-2,2′-bipyrimidine] | 120 nM
32 | COc1cc(C2CC2c2cnc(-c3ncccn3)nc2N2CCCCC2)ccc1F (single isomer, unassigned) [Example 144, trans-5-(2-(4-Fluoro-3-methoxyphenyl)cyclopropyl)-4-(piperidin-1-yl)-2,2′-bipyrimidine] | 25000 nM
33 | COCCCn1cc2c(F)cc(C3CC3c3cnc(-c4ncccn4)nc3)cc2n1 (single isomer, unassigned) [Example 269, trans-6-(2-([2,2′-Bipyrimidin]-5-yl)cyclopropyl)-4-fluoro-2-(3-methoxypropyl)-2H-indazole] | 46 nM
34 | COc1cc(C2CC2c2cnc(-c3ncccn3)nc2)cc(F)c1Cl (single isomer, unassigned) [Example 45, trans-5-(2-(4-Chloro-3-fluoro-5-methoxyphenyl)cyclopropyl)-2,2′-bipyrimidine] | 270 nM
35 | COCCCn1cc2c(F)cc(C3CC3c3cnc(-c4ncccn4)nc3)cc2n1 (single isomer, unassigned) [Example 268, trans-6-(2-([2,2′-Bipyrimidin]-5-yl)cyclopropyl)-4-fluoro-2-(3-methoxypropyl)-2H-indazole] | 10 nM
